Measurements published in the supplement of paper PMC8149375.
Several values for one entry are separate records, joined by “and”; a condition that tells them apart may be missing. Identical values can stand only once.

Tests used:
Settings in all cases: treatment: drug + dasatinib (fixed dose, not stated); 5 days
769-P [1] = test: GI50 of drug in presence of dasatinib; higher = less potent
Procedure: (§1)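 Primary HTS combination arm: 8 RCC cell lines treated with 8 doses (up to 10 uM) of each library drug plus a fixed dose of dasatinib (dose not stated) for 5 days; viability read by CellTiter-Glo and normalised to DMSO. GI50 was fitted with XLfit, AUC is the area under the dose-response curve, and minimum viability is the lowest fraction of DMSO viability across doses.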

786-O [2] = test: as above
Procedure: as §1

A498 [3] = test: as above
Procedure: as §1

ACHN [4] = test: as above
Procedure: as §1

SN12C [5] = test: as above
Procedure: as §1

TK-10 [6] = test: as above
Procedure: as §1

UO-31 [7] = test: as above
Procedure: as §1

769-P [8] = test: minimum viability across doses, drug + dasatinib, relative to DMSO (fraction); higher = less growth inhibition
Procedure: as §1

786-O [9] = test: as above
Procedure: as §1

A498 [10] = test: as above
Procedure: as §1

ACHN [11] = test: as above
Procedure: as §1

CAKI-1 [12] = test: as above
Procedure: as §1

SN12C [13] = test: as above
Procedure: as §1

TK-10 [14] = test: as above
Procedure: as §1

UO-31 [15] = test: as above
Procedure: as §1

769-P [16] = test: AUC of dose-response viability curve, drug + dasatinib, normalised to DMSO (arbitrary (AUC of normalised viability)); higher = less growth inhibition
Procedure: as §1

786-O [17] = test: as above
Procedure: as §1

A498 [18] = test: as above
Procedure: as §1

ACHN [19] = test: as above
Procedure: as §1

CAKI-1 [20] = test: as above
Procedure: as §1

SN12C [21] = test: as above
Procedure: as §1

TK-10 [22] = test: as above
Procedure: as §1

UO-31 [23] = test: as above
Procedure: as §1

CAKI-1 [24] = test: GI50 of drug in presence of dasatinib; higher = less potent
Procedure: as §1

Structure (SMILES)	GI50 of drug (786-O [2])	GI50 of drug (ACHN [4])	GI50 of drug (769-P [1])	GI50 of drug (A498 [3])	GI50 of drug (SN12C [5])	GI50 of drug (TK-10 [6])	GI50 of drug (UO-31 [7])	minimum viability across doses (769-P [8])	minimum viability across doses (786-O [9])	minimum viability across doses (A498 [10])	minimum viability across doses (ACHN [11])	minimum viability across doses (CAKI-1 [12])	minimum viability across doses (SN12C [13])	minimum viability across doses (TK-10 [14])	minimum viability across doses (UO-31 [15])	AUC of dose-response viability curve (769-P [16])	AUC of dose-response viability curve (786-O [17])	AUC of dose-response viability curve (A498 [18])	AUC of dose-response viability curve (ACHN [19])	AUC of dose-response viability curve (CAKI-1 [20])	AUC of dose-response viability curve (SN12C [21])	AUC of dose-response viability curve (TK-10 [22])	AUC of dose-response viability curve (UO-31 [23])	GI50 of drug (CAKI-1 [24])
Cn1cnc2c(F)c(Nc3ccc(Br)cc3Cl)c(C(=O)NOCCO)cc21 [AZD6244 (Selumetinib)] + Cc1nc(Nc2ncc(C(=O)Nc3c(C)cccc3Cl)s2)cc(N2CCN(CCO)CC2)n1 [dasatinib]	1660 nM	83.2 nM	1200 nM	–	1070 nM	3540 nM	–	0.294	0.507	0.301	0.343	0.129	0.0911	0.477	0.143	2.1	2.26	2.11	1.64	1.77	1.84	2.38	2.32	646 nM
Cc1cc(C(=O)NOCCO)c(Nc2ccc(I)cc2F)n(C)c1=O [AZD8330] + Cc1nc(Nc2ncc(C(=O)Nc3c(C)cccc3Cl)s2)cc(N2CCN(CCO)CC2)n1 [dasatinib]	54.5 nM	< 3 nM	69.4 nM	–	60.1 nM	108 nM	–	0.219	0.323	0.318	0.18	0.102	0.212	0.262	0.0965	1.49	1.67	1.77	0.912	1.21	1.5	1.64	1.9	56.5 nM
COc1cc(Nc2c(C#N)cnc3cc(OCCCN4CCN(C)CC4)c(OC)cc23)c(Cl)cc1Cl [Bosutinib (SKI-606)] + Cc1nc(Nc2ncc(C(=O)Nc3c(C)cccc3Cl)s2)cc(N2CCN(CCO)CC2)n1 [dasatinib]	2190 nM	56.8 nM	1070 nM	3350 nM	1330 nM	1020 nM	–	0.105	0.0253	0.294	0.103	0.0492	0.199	0.0934	0.0097	2.03	2.37	2.84	1.45	1.85	2.24	2.26	2.22	501 nM
COc1cc(Nc2ncc3c(n2)-c2ccc(Cl)cc2C(c2c(F)cccc2OC)=NC3)ccc1C(=O)O [MLN8237 (Alisertib)] + Cc1nc(Nc2ncc(C(=O)Nc3c(C)cccc3Cl)s2)cc(N2CCN(CCO)CC2)n1 [dasatinib]	60.2 nM	25 nM	95.7 nM	–	331 nM	2740 nM	5320 nM	0.231	0.145	0.353	0.16	0.0592	0.353	0.392	0.374	1.61	1.44	2.41	1.37	1.41	1.89	2.39	3.06	74.9 nM
CCOc1cc2ncc(C#N)c(Nc3ccc(OCc4ccccn4)c(Cl)c3)c2cc1NC(=O)/C=C/CN(C)C [Neratinib (HKI-272)] + Cc1nc(Nc2ncc(C(=O)Nc3c(C)cccc3Cl)s2)cc(N2CCN(CCO)CC2)n1 [dasatinib]	611 nM	4.66 nM	102 nM	6990 nM	215 nM	74.2 nM	–	0.0611	0.298	0.51	0.0762	0.0888	0.0625	0.228	0.0167	1.59	1.88	3.02	0.82	1.44	1.74	1.57	2.08	114 nM
CS(=O)(=O)O.O=C(Nc1cccc(Cl)c1)Nc1ncc(CCNc2ncnc3ccsc23)s1 [SNS-314] + Cc1nc(Nc2ncc(C(=O)Nc3c(C)cccc3Cl)s2)cc(N2CCN(CCO)CC2)n1 [dasatinib]	48.1 nM	61.8 nM	155 nM	–	634 nM	3780 nM	6020 nM	0.217	0.123	0.442	0.144	0.107	0.259	0.362	0.372	1.74	1.54	2.61	1.48	1.38	1.97	2.41	3.06	41.5 nM
Cn1c(=O)c(F)c(Nc2ccc(I)cc2F)c2c(=O)n(C[C@@H](O)CO)cnc21 [TAK-733] + Cc1nc(Nc2ncc(C(=O)Nc3c(C)cccc3Cl)s2)cc(N2CCN(CCO)CC2)n1 [dasatinib]	452 nM	< 3 nM	192 nM	–	82.5 nM	138 nM	200 nM	0.201	0.36	0.355	0.222	0.0816	0.192	0.199	0.0313	1.73	1.96	1.92	1.21	1.2	1.51	1.71	1.88	29.7 nM

Continued, in another order:

GI50 of drug (786-O [2])	GI50 of drug (ACHN [4])	Structure (SMILES)	GI50 of drug (769-P [1])	GI50 of drug (A498 [3])	GI50 of drug (SN12C [5])	GI50 of drug (TK-10 [6])	GI50 of drug (UO-31 [7])	minimum viability across doses (769-P [8])	minimum viability across doses (786-O [9])	minimum viability across doses (A498 [10])	minimum viability across doses (ACHN [11])	minimum viability across doses (CAKI-1 [12])	minimum viability across doses (SN12C [13])	minimum viability across doses (TK-10 [14])	minimum viability across doses (UO-31 [15])	AUC of dose-response viability curve (769-P [16])	AUC of dose-response viability curve (786-O [17])	AUC of dose-response viability curve (A498 [18])	AUC of dose-response viability curve (ACHN [19])	AUC of dose-response viability curve (CAKI-1 [20])	AUC of dose-response viability curve (SN12C [21])	AUC of dose-response viability curve (TK-10 [22])	AUC of dose-response viability curve (UO-31 [23])	GI50 of drug (CAKI-1 [24])
1570 nM	642 nM	CCOc1ccn(-c2ccc(F)cc2)c(=O)c1C(=O)Nc1ccc(Oc2ccnc(N)c2Cl)c(F)c1 + Cc1nc(Nc2ncc(C(=O)Nc3c(C)cccc3Cl)s2)cc(N2CCN(CCO)CC2)n1 [dasatinib]	> 10000 nM	> 10000 nM	> 10000 nM	> 10000 nM	> 10000 nM	0.495	0.35	0.61	0.247	0.118	0.528	0.634	0.695	2.36	1.85	2.83	1.66	1.92	2.27	2.43	3.54	–
21.7 nM	8.4 nM	CC(=O)Nc1cccc(-n2c(=O)n(C3CC3)c(=O)c3c(Nc4ccc(I)cc4F)n(C)c(=O)c(C)c32)c1 + Cc1nc(Nc2ncc(C(=O)Nc3c(C)cccc3Cl)s2)cc(N2CCN(CCO)CC2)n1 [dasatinib]	217 nM	–	86.2 nM	78.7 nM	159 nM	0.196	0.321	0.306	0.216	0.0991	0.243	0.235	0.0585	1.68	1.48	1.96	1.2	1.29	1.58	1.58	1.88	54.2 nM
497 nM and 187 nM	79.9 nM and 106 nM	Cc1cnc(Nc2ccc(N3CCN(C)CC3)cc2)nc1Nc1cccc(S(=O)(=O)NC(C)(C)C)c1 + Cc1nc(Nc2ncc(C(=O)Nc3c(C)cccc3Cl)s2)cc(N2CCN(CCO)CC2)n1 [dasatinib]	878 nM and 719 nM	4270 nM and 3210 nM	746 nM and 690 nM	336 nM and 309 nM	903 nM and 821 nM	0.0284 and 0.0197	0.0113 and 0.0115	0.176 and 0.14	0.00194 and 0.00321	0.00497 and 0.00392	–	0.00138 and 0.00232	0.0085 and 0.0129	1.99 and 2	1.88 and 1.72	3.36 and 2.9	1.25 and 1.24	1.56 and 1.46	1.85 and 1.91	1.73 and 1.65	3.14 and 3	271 nM and 152 nM
89.8 nM	10.5 nM	O=C(NC[C@H](O)CO)c1ccncc1Nc1ccc(I)cc1F + Cc1nc(Nc2ncc(C(=O)Nc3c(C)cccc3Cl)s2)cc(N2CCN(CCO)CC2)n1 [dasatinib]	455 nM	–	307 nM	296 nM	563 nM	0.212	0.394	0.31	0.216	0.0863	0.227	0.203	0.0714	1.81	1.87	2.28	1.28	1.52	1.9	1.9	2.33	139 nM
402 nM	68.8 nM	Cc1ccc(C(=O)Nc2ccc(CN3CCN(C)CC3)c(C(F)(F)F)c2)cc1C#Cc1cnc2cccnn12 + Cc1nc(Nc2ncc(C(=O)Nc3c(C)cccc3Cl)s2)cc(N2CCN(CCO)CC2)n1 [dasatinib]	624 nM	935 nM	230 nM	390 nM	311 nM	–	–	–	–	–	–	–	–	–	–	–	–	–	–	–	–	127 nM
10.7 nM	21.2 nM	C[C@@H](Oc1cc(-n2cnc3ccc(CN4CCN(C)CC4)cc32)sc1C(N)=O)c1ccccc1C(F)(F)F + Cc1nc(Nc2ncc(C(=O)Nc3c(C)cccc3Cl)s2)cc(N2CCN(CCO)CC2)n1 [dasatinib]	31 nM	–	89.1 nM	265 nM	77.4 nM	0.0347	0.00468	0.384	0.0897	0.0912	0.155	0.171	0.00496	1.14	0.653	1.97	1.22	1.33	1.62	2.01	1.32	38.1 nM
17.4 nM	4.88 nM	CCC(=O)N1CCN(c2ccc(-n3c(=O)ccc4cnc5ccc(-c6cnc7ccccc7c6)cc5c43)cc2C(F)(F)F)CC1 [Torin 1] + Cc1nc(Nc2ncc(C(=O)Nc3c(C)cccc3Cl)s2)cc(N2CCN(CCO)CC2)n1 [dasatinib]	21.8 nM	73.9 nM	26.6 nM	–	77 nM	0.0737	0.0106	0.025	0.0484	0.0196	0.0936	0.0693	0.00689	1.06	0.988	1.53	0.722	0.983	1.16	1.13	1.5	27.7 nM
< 3 nM	< 3 nM	Nc1ccc(-c2ccc3ncc4ccc(=O)n(-c5cccc(C(F)(F)F)c5)c4c3c2)cn1 [Torin 2] + Cc1nc(Nc2ncc(C(=O)Nc3c(C)cccc3Cl)s2)cc(N2CCN(CCO)CC2)n1 [dasatinib]	11.2 nM	22.6 nM	6.44 nM	–	14.9 nM	0.0396	0.00374	0.0422	0.033	0.00828	0.0283	0.0129	0.00805	0.828	0.422	0.961	0.382	0.756	0.777	0.828	0.727	12.3 nM
